The values below come from publication PMC9532755, “Impact of lactisole on the time-intensity profile of selected sweeteners in dependence of the binding site” (Food Chemistry: X, 2022).

The subject of this experiment is perceived sweet intensity (panelists). Kind of experiment: Sensory time-intensity (TI) measurement of sweetness by a trained panel. As to conditions: for Emax of max. intensity (sensory): scale 0-100, top < 100; for sweetener concentration up to which lactisole effectively inhibited the sweetness: time-intensity curves; for EC50: Homo sapiens, asymmetric five parameter curve fit, read-out: EC50 of max. intensity (sensory); for lingering: time point at which < 50 % of maximum sweetness was reached / onset (time of first maximum intensity): at sweet intensity saturation level: 50 mM cyclamate, 0.5 mM NHDC, 5.0 mM acesulfame K, 5.0 mM aspartame, without lactisole; for mode of inhibition by lactisole (shift of dose-response curve), sensory experiments: combination with 0.46 and 0.92 mM lactisole. In kind it is in vivo, human. An excerpt:
All panelists gave their written informed consent for participating in the panel and had to complete a sensory training. […] On a last training day, the evaluation on unstructured scales and the time-dependent evaluation on the computer were trained. All panelists reported to be in good general health condition, and not being under medication or pregnant. At least one hour before every training or tasting, panelists were instructed not to smoke and not to consume intense tasting food or beverage (e.g. coffee, chili, garlic, chewing gum) and to avoid in general strong hunger or fullness as well as strong odors or perfume on test days.
Every test solution was assessed randomly at two different test days with at least 8 panelists participating per replicate. The panelists were free to choose to participate at the different test days. A maximum of five test compounds were assessed in one session. All samples were coded with three-digit random code and presented to the panelists in randomized order. On each test day, panelists were presented five sweet solutions with 0, 25, 50, 100 and 200 g/L sucrose as a scale training for the ratings from “not at all” to “very intensive” sweetness. […] The three minutes of evaluation were chosen to capture as much of the lingering as possible without wearing out the panelists during the evaluation. A total of 350 measuring time points was recorded within the pre-set time frame, especially to see differences in the first seconds of evaluation, which are important for the onset. The panelists were asked to take the sample (20 mL) into their mouth, while starting the timer and simultaneously the evaluation of sweet intensity over the time, and to spit out the sample after ten seconds while continuing the evaluation of the sweetness intensity until the end of the three minutes.
For comparison of the time-dependent properties, the following descriptors were used: the maximum intensity at the first 30 sec of evaluation as “max. intensity”, the time-point of the first maximum intensity as “onset” in sec, […], and the area under the curve from the time-intensity plots as “AUC” as a marker for the overall intensity and duration.
All sensory experiments were conducted at the Christian Doppler Laboratory for Taste Research at the Institute for Physiological Chemistry, University of Vienna, Austria, at room temperature (21 – 23 °C). • Calcium mobilization assay
The statistical analysis and graphical representation were performed with GraphPad Prism 9.0 for sensory results and with SigmaPlot 14.0 for cell experiments. To evaluate the sensory dose–response effects of ascending sweetener concentration w/o lactisole, an asymmetrical five-parameter curve (Richard́s five-parameter dose–response curve) was fitted. The data are presented as means ± SEM from at least 16 single evaluations. Statistical significance between the different test compounds and concentration-dependent effects was assessed by two-way ANOVAs with Tukey post hoc test using Graph Pad Prism. The normal distribution of the data sets was checked by evaluation of the kurtosis (between −7 to + 7) and the skewness (between −3 to + 3). Equal variance was tested using Levenés test. In case the assumptions of a normal distribution and equal variance were not met, the non-parametric ANOVA on ranks (Kruskal-Wallis Test) with Dunn's post-hoc test without the calculation of interaction was applied. A Pearson product moment correlation was conducted to investigate relationships between sensory results and cell responses of the tested sweeteners.

Structures are written as SMILES. Peptide text beside a SMILES is read from it. Where only a bound is given, the exact number is not on record here.

Consider `CC1=CC(=O)NS(=O)(=O)O1` [acesulfame K], for which the “lingering: time point at which < 50 % of maximum sweetness was reached” value (from here on “lingering: time point at which < 50 %”) was 44.7 s and the “onset (time of first maximum intensity)” value was found to be 4.6 s. Also, under “0 mM lactisole”, the “Hillslope of max. intensity dose-response (sensory)” value (“Hillslope” below) is 1.43, the “Emax of max. intensity (sensory)” value is on record as “unstable” and the EC50 turned out to be 920 µM. Also, where the note is “0.46 mM lactisole”, the “sweetener concentration up to which lactisole effectively inhibited the sweetness” value is reported as “up to 1 mM”. Also, the “sweetener concentration up to which lactisole effectively inhibited the sweetness” value (0.92 mM lactisole) is “up to 1 mM”. For the setting “with 0.46 mM lactisole”, the “Hillslope” value was found to be 2.75 and the “Emax of max. intensity (sensory)” value came to 71.83. For the setting “with 0.92 mM lactisole”, the “Hillslope” value is 1.45 and the “Emax of max. intensity (sensory)” value came to 73.60.

As for `COC(=O)[C@H](Cc1ccccc1)NC(=O)[C@@H](N)CC(=O)O` [aspartame] (H-Asp-Phe-OMe), the “lingering: time point at which < 50 %” value was 71.4 s and the “onset (time of first maximum intensity)” value was determined as 5.7 s. Under “0 mM lactisole”, the “Hillslope” value stood at 2.56, the “Emax of max. intensity (sensory)” value is 97.05 and the EC50 turned out to be 1090 µM. Further, the “sweetener concentration up to which lactisole effectively inhibited the sweetness” value (0.46 mM lactisole) is recorded as at most 1.0 mM. For the same compound, the “sweetener concentration up to which lactisole effectively inhibited the sweetness” value (0.92 mM lactisole) is “up to 2.0 mM”. For the same compound, for the setting “with 0.46 mM lactisole”, the “Hillslope” value is recorded as 1.28 and the “Emax of max. intensity (sensory)” value is 99.22. Further, where the note is “with 0.92 mM lactisole”, the “Hillslope” value amounted to 1.32 and the “Emax of max. intensity (sensory)” value is 100.00.

Regarding `COc1ccc(CCC(=O)c2c(O)cc(O[C@@H]3O[C@H](CO)[C@@H](O)[C@H](O)[C@H]3O[C@@H]3O[C@@H](C)[C@H](O)[C@@H](O)[C@H]3O)cc2O)cc1O` [NHDC, neohesperidin dihydrochalcone], the “lingering: time point at which < 50 %” value was 100.7 s; the “onset (time of first maximum intensity)” value is 5.1 s; the “mode of inhibition by lactisole (shift of dose-response curve), sensory experiments” value is given as “competitive inhibition”. Besides, where the note is “0 mM lactisole”, the “Hillslope” value was 0.94, the “Emax of max. intensity (sensory)” value was 97.73 and the EC50 was 56 µM. Moreover, for the setting “0.46 mM lactisole”, the “sweetener concentration up to which lactisole effectively inhibited the sweetness” value was “up to 0.2 mM”. Also, the “sweetener concentration up to which lactisole effectively inhibited the sweetness” value (0.92 mM lactisole) is on record as “up to 0.5 mM”. Further, under “with 0.46 mM lactisole”, the “Hillslope” value is given as 0.89 and the “Emax of max. intensity (sensory)” value worked out at 100.00. Besides, under “with 0.92 mM lactisole”, the “Hillslope” value worked out at 0.82 and the “Emax of max. intensity (sensory)” value was found to be 100.00.

Regarding `O=S(=O)(O)NC1CCCCC1` [cyclamate], the “lingering: time point at which < 50 %” value is 60.1 s; the “onset (time of first maximum intensity)” value amounted to 5.1 s; the “mode of inhibition by lactisole (shift of dose-response curve), sensory experiments” value is “competitive inhibition”. Moreover, for the setting “0 mM lactisole”, the “Hillslope” value amounted to 2.60, the “Emax of max. intensity (sensory)” value was 96.11 and the concentration for a half-maximal effect (EC50) was 8720 µM. For the same compound, the “sweetener concentration up to which lactisole effectively inhibited the sweetness” value (0.46 mM lactisole) is “up to 5.0 mM”. Moreover, where the note is “0.92 mM lactisole”, the “sweetener concentration up to which lactisole effectively inhibited the sweetness” value was at most 10.0 mM. Besides, where the note is “with 0.46 mM lactisole”, the “Hillslope” value was 2.18 and the “Emax of max. intensity (sensory)” value is 92.37. Also, under “with 0.92 mM lactisole”, the “Hillslope” value amounted to 2.10 and the “Emax of max. intensity (sensory)” value was “unstable”.
